Results: patent US20140094424A1, “MICROBICIDAL COMPOSITIONS AND METHODS OF PRODUCTION USE THEREOF” (priority 2011, published 2014)

Key:
[1] = tested on: Aspergillus glaucus- DMO (Q); test: MBC (minimum bactericidal concentration) test in Wash NEXT reagent; assay type: cell-based; settings: at 14 days
Protocol: (§1) The stock organisms were thawed and subbed prior to beginning the MBC test. Molds were subbed to SDA plates one week before, and the bacteria were subbed to TAT agar plates 24 hours prior to the start of the test. All plates were incubated at 32 degrees C.
(§2) For the molds, each organism was inoculated into 40 ml sterile saline in a centrifuge tube to create a density of MacFarland #5. Two serial dilutions of 1:100 were then made, resulting in 10^−2 and 10^−4 concentrations. Each dilution was vortexed before it was sampled, and sterile Eppendorf pipette tips were used to make each transfer. The 10^−4 dilution was spiral plated to yield the initial inoculum concentration.
(§3) MBC trays were set up with the prepared test reagent. Using a Matrix pipettor, 100 μl aliquots of reagent were distributed into the wells, diluting the amount of preservative from 100% to 10% increments, using unpreserved reagent as the diluent. In one row, 100% non-preserved reagent acted as a positive control and served as a benchmark for a full mat of growth. In well #12H, 100 μl unpreserved reagent was pipetted, and this well was not inoculated with organisms, as it served as the negative control. Once all of the trays were prepared, the prepared bacteria/mold suspensions were poured into the MBC inoculating trays. These were placed onto the reagent trays, and 0.01 ml inoculum was introduced into the 100 μl of reagent in each well.
(§4) This was done by dipping a sterile cotton swab into each well, and absorbing all of the liquid in the well. The swab was rolled onto a TAT agar plate ensuring that the entire swab touches the agar. Plates ware incubated at 32 degrees C. for 48 hours to 7 days, depending on the organism. Observations for growth were performed by a scoring matrix using + for a full mat, +/− for some growth, a numerical value for an actual colony count, and—for no growth.
(§5) Below are tables that contain the data obtained in Example 1. The MBC test is scored by (+) indicating a full grown mat of organisms, equivalent to the organisms in the unpreserved reagent. (+/−) indicates there is some kill evident disturbing that mat or bringing the quantities down to an almost countable level. An actual number is the actual number of colonies growing at that concentration of preservative. (−) indicates no growth found. The MBC trays were stored at room temperature for the entire test.
(§6) The materials and methods and analysis of the MBC test were the same as in Example 1.

[2] = tested on: Penicillium notatum-KMO (R); test: as above; assay type: cell-based; set-up: key to MBC test growth score: number = actual colony count; + full mat, − no growth
Protocol: as §1, §2, §3, §4, §5, §6

Cc1cc(NS(=O)(=O)c2ccc(N)cc2)no1 [Sulfamethoxazole, sulfamethoxazole]
28: MBC test growth score ([2]; 30% preservative, 14 day)
4: MBC test growth score ([2]; 100% preservative, 7 day)
8: MBC test growth score ([2]; 80% preservative, 7 day)
6: MBC test growth score ([2]; 80% preservative, 14 day)
3: MBC test growth score ([2]; 90% preservative, 14 day)
+: MBC test growth score ([2]; 10% preservative, 8 hour) | MBC test growth score ([2]; 10% preservative, 24 hour) | MBC test growth score ([2]; 10% preservative, 72 hour) | MBC test growth score ([2]; 10% preservative, 7 day) | MBC test growth score ([2]; 20% preservative, 8 hour) | MBC test growth score ([2]; 20% preservative, 24 hour) | MBC test growth score ([2]; 30% preservative, 8 hour) | MBC test growth score ([2]; 30% preservative, 24 hour) | MBC test growth score ([2]; 40% preservative, 8 hour) | MBC test growth score ([2]; 40% preservative, 24 hour) | MBC test growth score ([2]; 50% preservative, 8 hour) | MBC test growth score ([2]; 50% preservative, 24 hour) | MBC test growth score ([2]; 60% preservative, 8 hour) | MBC test growth score ([2]; 60% preservative, 24 hour) | MBC test growth score ([2]; 70% preservative, 8 hour) | MBC test growth score ([2]; 70% preservative, 24 hour) | MBC test growth score ([2]; 80% preservative, 8 hour) | MBC test growth score ([2]; 80% preservative, 24 hour) | MBC test growth score ([2]; 90% preservative, 8 hour) | MBC test growth score ([2]; 90% preservative, 24 hour) | MBC test growth score ([2]; 100% preservative, 8 hour) | MBC test growth score ([2]; 100% preservative, 24 hour)
25: MBC test growth score ([2]; 40% preservative, 14 day)
7: MBC test growth score ([2]; 90% preservative, 7 day) | MBC test growth score ([2]; 100% preservative, 72 hour)
18: MBC test growth score ([2]; 50% preservative, 14 day) | MBC test growth score ([2]; 70% preservative, 72 hour)
9: MBC test growth score ([2]; 70% preservative, 7 day)
No kill @ 100%: total kill at % preservative (MBC) [1]
2: MBC test growth score ([2]; 100% preservative, 14 day)
+/−: MBC test growth score ([2]; 10% preservative, 48 hour) | MBC test growth score ([2]; 10% preservative, 14 day) | MBC test growth score ([2]; 20% preservative, 48 hour) | MBC test growth score ([2]; 20% preservative, 72 hour) | MBC test growth score ([2]; 20% preservative, 7 day) | MBC test growth score ([2]; 30% preservative, 48 hour) | MBC test growth score ([2]; 30% preservative, 72 hour) | MBC test growth score ([2]; 30% preservative, 7 day) | MBC test growth score ([2]; 40% preservative, 48 hour) | MBC test growth score ([2]; 40% preservative, 72 hour) | MBC test growth score ([2]; 40% preservative, 7 day) | MBC test growth score ([2]; 50% preservative, 48 hour) | MBC test growth score ([2]; 50% preservative, 72 hour) | MBC test growth score ([2]; 50% preservative, 7 day) | MBC test growth score ([2]; 60% preservative, 48 hour) | MBC test growth score ([2]; 60% preservative, 72 hour) | MBC test growth score ([2]; 60% preservative, 7 day) | MBC test growth score ([2]; 70% preservative, 48 hour) | MBC test growth score ([2]; 80% preservative, 48 hour) | MBC test growth score ([2]; 90% preservative, 48 hour) | MBC test growth score ([2]; 100% preservative, 48 hour)
10: MBC test growth score ([2]; 70% preservative, 14 day) | MBC test growth score ([2]; 90% preservative, 72 hour)
31: MBC test growth score ([2]; 20% preservative, 14 day)
